Key:
[1] = tested on: HCT116 homozygous MTAP knockout cells; assay: HCT116 cell proliferation assay (CTG), MTAP knockout cells; type: cell-based, human; conditions: Cell Titer-Glo
Description: (§1) Control samples were analyzed in parallel.
(§2) On Day 0, 150 HCT116 parental or HCT116 homozygous MTAP knockout cells were seeded in 96-well plates in McCoy's 5A medium containing 10% fetal bovine serum and pen/strep. And the cells were incubated overnight at 37° C. and 5% CO2.
(§3) On Day 1, cells were treated with 9-point serial dilution of compound, using a top concentration of 50 μM, 1:5 serial dilution steps and, a DMSO-only control. And cells were incubated for 6 days.
(§4) On Day 7, cell viability was measured using a CTG assay Kit (Cell Titer-Glo; Promega, catalog no.: G7573) in accordance with the manufacturer's instructions. Assays plates were read on a EnVision™ Multilabel Reader using the Ultra-Sensitive luminescence model. The data were analyzed by GraphPad Prism 5.0 software, and the dose-effect curve was obtained by fitting the data using nonlinear S-curve regression, from which the IC50 value was calculated.

[2] = Liver microsome metabolic stability (LMS) assay, mouse; conditions: for T1/2 of LMS, M: mouse liver microsome 0.5 mg protein/mL, 1 μM, NADPH
PRMT5/MEP50 = PRMT5/MEP50 (Homo sapiens (Human), UniProt O14744); assay: MTase-Glo methyl transferase assay (PRMT5 inhibition); type: biochemical; conditions: 50 nM PRMT5/MEP50, 25 μM SAM, 5 μM Histone H4 peptide (1-21), read-out: IC50 for PRMT5 inhibiting
Sequence of PRMT5/MEP50 (O14744 whole entry): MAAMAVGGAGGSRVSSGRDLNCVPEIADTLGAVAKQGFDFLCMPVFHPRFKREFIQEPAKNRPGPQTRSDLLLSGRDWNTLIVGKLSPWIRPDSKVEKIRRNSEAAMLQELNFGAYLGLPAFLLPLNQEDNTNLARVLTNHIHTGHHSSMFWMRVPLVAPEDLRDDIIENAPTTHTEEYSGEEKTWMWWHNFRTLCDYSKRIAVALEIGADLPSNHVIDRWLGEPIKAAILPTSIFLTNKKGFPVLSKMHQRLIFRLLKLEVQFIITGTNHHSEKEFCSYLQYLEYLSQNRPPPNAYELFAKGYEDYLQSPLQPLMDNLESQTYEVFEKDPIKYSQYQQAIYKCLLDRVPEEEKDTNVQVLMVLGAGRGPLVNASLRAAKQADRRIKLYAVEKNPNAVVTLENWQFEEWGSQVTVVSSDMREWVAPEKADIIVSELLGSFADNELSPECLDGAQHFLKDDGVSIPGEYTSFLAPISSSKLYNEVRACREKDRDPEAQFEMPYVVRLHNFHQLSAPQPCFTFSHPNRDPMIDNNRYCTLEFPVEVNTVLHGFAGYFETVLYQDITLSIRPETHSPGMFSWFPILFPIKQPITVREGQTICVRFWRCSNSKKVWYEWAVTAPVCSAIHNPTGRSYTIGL
Sequence of PRMT5/MEP50 (Q9BQA1 whole entry partner): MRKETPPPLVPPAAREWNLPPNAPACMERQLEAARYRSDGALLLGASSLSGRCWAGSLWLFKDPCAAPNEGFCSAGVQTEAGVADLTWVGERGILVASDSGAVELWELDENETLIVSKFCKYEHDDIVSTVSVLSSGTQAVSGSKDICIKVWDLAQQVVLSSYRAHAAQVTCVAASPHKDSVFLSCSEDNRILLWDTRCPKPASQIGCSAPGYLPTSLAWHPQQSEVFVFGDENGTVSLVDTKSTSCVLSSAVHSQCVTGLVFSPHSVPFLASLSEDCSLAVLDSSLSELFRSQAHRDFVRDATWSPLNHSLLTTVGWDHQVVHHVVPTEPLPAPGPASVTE
Description: The PRMT5 inhibitory activity of test compounds was determined using the MTase-Glo™ assay (Promega), which monitors the product (S-adenosyl homocysteine or SAH) of methyltransferase reactions. The PRMT5 MTase-Glo assays were conducted in a 384-well white ProxiPlate (PerkinElmer, catalog no.: 6008280) in a total volume of 12 μL. The PRMT5 enzymatic reaction (in 4 μL) contained 50 nM PRMT5/MEP50 (Reaction Biology Corp, catalog no.: HMT-22-148), 25 μM S-adenosyl methionine (SAM, Promega), 5 μM Histone H4 peptide (1-21) (BPS Bioscience, catalog no.: 52018-2) and five-fold serially diluted compounds in a reaction buffer of 50 mM Tris (pH 8.0), 50 mM NaCl, 0.01% Tween 20, 0.01% BSA, and 1 mM DTT. The test compounds were pre-incubated with PRMT5/MEP50 and Histone H4 peptide for 20 minutes at room temperature before the addition of SAM to initiate the PRMT5 reaction. The reaction was allowed to proceed for 1 hour at 37° C. and was terminated by 2 μL of 3× MTase-Glo™ Reagent (Promega) and 150 μM EPZ015666 (Selleck, catalog no.: 1616391-65-1). After a 30-minute incubation at room temperature, 6 μL of MTase-Glo™ Detection Solution (Promega) was added and the plate was incubated at room temperature for an additional 30 minutes. The light signal corresponding to the amount of SAH produced by the PRMT5 reaction was subsequently measured using an Envision multimode reader (PerkinElmer). IC50 and Ki values were obtained by analyzing dose-response curves using GraphPad Prism.

[3] = tested on: HCT116 parental (wild type) cells; assay: HCT116 cell proliferation assay (CTG), parental cells; type: cell-based, human; conditions: Cell Titer-Glo
Description: as §1, §2, §3, §4

[4] = biological target: hERG potassium ion channel (Homo sapiens (Human), UniProt Q12809); assay: hERG potassium ion channel inhibition assay (automated patch-clamp, CHO-hERG cells); type: cell-based; conditions: Qpatch, highest test concentration 40.00 μM
Sequence of hERG potassium ion channel (Q12809 whole entry): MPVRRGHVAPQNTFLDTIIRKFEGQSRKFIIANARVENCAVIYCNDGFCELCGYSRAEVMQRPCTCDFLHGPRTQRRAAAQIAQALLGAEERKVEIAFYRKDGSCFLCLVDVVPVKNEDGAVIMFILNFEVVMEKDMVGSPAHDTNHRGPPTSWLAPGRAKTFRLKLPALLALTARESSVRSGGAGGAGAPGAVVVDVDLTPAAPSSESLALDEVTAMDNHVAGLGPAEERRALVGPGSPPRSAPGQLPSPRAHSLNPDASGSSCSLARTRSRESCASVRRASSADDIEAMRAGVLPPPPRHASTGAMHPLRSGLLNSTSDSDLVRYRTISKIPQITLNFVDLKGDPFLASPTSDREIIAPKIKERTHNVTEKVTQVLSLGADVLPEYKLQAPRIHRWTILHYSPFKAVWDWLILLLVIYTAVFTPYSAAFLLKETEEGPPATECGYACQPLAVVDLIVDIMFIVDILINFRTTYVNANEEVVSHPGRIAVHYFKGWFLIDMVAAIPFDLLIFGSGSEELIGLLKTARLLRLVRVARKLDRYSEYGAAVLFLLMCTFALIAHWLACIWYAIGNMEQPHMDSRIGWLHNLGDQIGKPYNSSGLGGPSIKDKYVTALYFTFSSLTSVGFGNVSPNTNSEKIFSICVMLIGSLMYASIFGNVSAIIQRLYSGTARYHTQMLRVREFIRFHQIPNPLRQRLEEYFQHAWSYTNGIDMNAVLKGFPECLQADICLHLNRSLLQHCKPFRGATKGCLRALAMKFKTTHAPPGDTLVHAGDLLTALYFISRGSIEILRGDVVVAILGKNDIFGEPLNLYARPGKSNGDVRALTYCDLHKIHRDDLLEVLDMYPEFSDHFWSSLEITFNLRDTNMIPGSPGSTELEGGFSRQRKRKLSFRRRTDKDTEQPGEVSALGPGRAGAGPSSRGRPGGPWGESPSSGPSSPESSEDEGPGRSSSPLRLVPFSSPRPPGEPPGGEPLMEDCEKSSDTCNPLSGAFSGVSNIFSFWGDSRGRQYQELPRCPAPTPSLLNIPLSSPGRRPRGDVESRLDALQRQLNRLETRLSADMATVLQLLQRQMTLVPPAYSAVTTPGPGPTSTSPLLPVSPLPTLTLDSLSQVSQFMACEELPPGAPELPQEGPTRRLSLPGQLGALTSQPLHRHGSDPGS
Description: Drug-hERG interaction was measured by automated patch-clamp methods, with cisapride as positive control.
1.1 CHO-hERG cells were cultured in 175 cm^2 culture bottle. After the cell density grew to 60-80%, the culture medium was removed, washed with 7 mL of phosphate buffered saline (PBS), and then digested with 3 mL Detachin.
1.2 After the digestion was complete, 7 mL culture solution was added for neutralization, and then centrifuged, the clear solution was sucked, and 5 mL culture solution was added for re-suspension to ensure the cell density was 2˜5×10^6/mL.
The process of single-cell high-impedance sealing and whole-cell pattern formation was all automatically completed by Qpatch instrument. After obtaining whole-cell recording mode, the cell was pinching at −80 millivolts. Before giving a 5-second +40 millivolt depolarization stimulus, a 50-millisecond pre-voltage of −50 millivolts was given first, and then repolarized to −50 millivolts for 5 seconds. Go back to −80 millivolts. This voltage stimulation was applied every 15 seconds, recorded for 2 minutes, then extracellular fluid was given and recorded for 5 minutes, and then the administration process began. The concentration of test compound was given from the lowest test concentration for 2.5 minutes per test concentration. After continuous administration of all concentrations, the positive control 3 μM cisapride was given. At least 2 cells were tested for each concentration (n≥2).
4.1 The compound mother liquor was diluted with DMSO, and 10 μL compound stock solution was added to 20 μL DMSO solution, which was continuously 3-fold diluted to 6 DMSO-concentrations.
4.2 4 μL of test compounds in 6 DMSO-concentrations were added to 396 μL extracellular solution and were 100-fold diluted to 6 intermediate concentrations. Then, 80 μL of test compounds in 6 intermediate concentrations were added to 320 μL extracellular solution and were 5-fold diluted to the final concentration to be tested.
4.3 The highest test concentration was 40.00 μM, and six test concentrations were 40.00, 13.33, 4.44, 1.48, 0.49, 0.16 μM, respectively.
4.5 Entire dilution process for test compound preparation was performed by Bravo instrument.
The experimental data were analyzed by GraphPad Prism 5.0 software.

[5] = microsomes; for T1/2 of LMS, H / CLint (mic) H: human
[6] = microsomes; for T1/2 of LMS, D / CLint (mic) D: dog
[7] = microsomes; for T1/2 of LMS, C / CLint (mic) C: cynomolgus monkey
[8] = tested on: cryopreserved hepatocytes; assay: Hepatic metabolic stability (HMS) assay, rat hepatocytes; conditions: for T1/2 (hepatocytes) R / CLint (liver) R: rat hepatocytes; for T1/2 (hepatocytes) R: 1 μM test compound (3 μM positive control); for CLint (liver) R: scaled to liver; for CLint (hep) R: rat, hepatocytes
Description: 1) 10 mM test compounds were provided.
(§5) 2) 30 mM positive control stock solutions: Dissolved accurate amount of positive control compounds in dimethyl sulfoxide (DMSO).
(§6) 3) 1000× Stock Solution: Diluted 10 mM test compounds and 30 mM positive control compounds to 1 mM and 3 mM with DMSO in 96-well plates.
(§7) 4) 100× Dosing Solution: Diluted 1 mM test compounds and 3 mM positive control compounds to 100 μM and 300 μM dosing solutions with ACN.
(§8) 5) Preparation of 0.5×10^6/mL cells suspension: cryopreserved cells were thawed, isolated and suspended in Incubation Medium, then diluted with pre-warmed Incubation Medium to 0.5×10^6 cells/mL.
(§9) 6) Add 198 μL of pre-warmed cell suspensions in 96-well plates.
(§10) 7) Preparation of Quenching Plate: Transfer 125 μL of stop solution in a set of pre-labeled 96-well plates.
(§11) 8) Spike 2 μL dosing solution to each well of 96-well plates in duplicate.
(§12) 9) For TO Samples, mix to achieve a homogenous suspension for about 1 min, then immediately transfer 25 μL of each sample into well containing 125 μL of ice-cold stop solution followed by mixing.
(§13) 10) Incubate all plates at 37° C. in a 95% humidified incubator at 5% CO2 to start the reactions with constant shaking.
(§14) 11) At 15, 30, 60 and 90 min, mix samples and then transfer 25 μL of each sample at each time point to well containing 125 μL of ice-cold stop solution followed by mixing.
(§15) 12) Medium Control (MC) sample plates (labeled as TO-MC and T90-MC) are prepared in the same way as cell incubation except that medium was used instead of cell suspension.
(§16) 13) At each corresponding time point, stop the reactions by removing the plates from incubator and mixing with 125 μL of ice-cold stop solution.
(§17) 14) Vortex the plates immediately on a plate shaker at 600 rpm for 10 minutes. Then, centrifuge all sample plates at 3220×g for 20 min at 4° C.
(§18) 15) After centrifugation, 80 μL/well of supernatant in the sample plates are transferred to another set of pre-labeled 96-well plates which containing 240 μL of ultra pure water according to the plate map.
(§19) 16) Analytical plates are sealed and store at 4° C. until LC-MS/MS analysis.
(§20) The remaining percents of test articles after incubation were calculated by the follow equations:
(§21) Use the following equation of first order kinetics to calculate T1/2 and CLint:

[9] = tested on: cryopreserved hepatocytes; assay: Hepatic metabolic stability (HMS) assay, cynomolgus monkey hepatocytes; conditions: for T1/2 (hepatocytes) C / CLint (liver) C: cynomolgus monkey hepatocytes; for T1/2 (hepatocytes) C: 1 μM test compound (3 μM positive control); for CLint (liver) C: scaled to liver; for CLint (hep) C: cynomolgus monkey, hepatocytes
Description: 1) 10 mM test compounds were provided.
as §5, §6, §7, §8, §9, §10, §11, §12, §13, §14, §15, §16, §17, §18, §19, §20, §21

[10] = tested on: cryopreserved hepatocytes; assay: Hepatic metabolic stability (HMS) assay, dog hepatocytes; conditions: for T1/2 (hepatocytes) D / CLint (liver) D: dog hepatocytes; for T1/2 (hepatocytes) D: 1 μM test compound (3 μM positive control); for CLint (liver) D: scaled to liver; for CLint (hep) D: dog, hepatocytes
Description: 1) 10 mM test compounds were provided.
as §5, §6, §7, §8, §9, §10, §11, §12, §13, §14, §15, §16, §17, §18, §19, §20, §21

[11] = Homo sapiens, HCT-116, 6 days treatment

SMILES	IC50 (PRMT5/MEP50)	IC50 [4]	T1/2 of LMS, H [5]	IC50 ([1]; 6 days treatment)	T1/2 of LMS, D [6]	T1/2 of LMS, C [7]	IC50 ([3]; 6 days treatment)	CLint (mic) H [5]	CLint (liver) H [5]	T1/2 (hepatocytes) R [8]	CLint (liver) R [8]	CLint (hep) R [8]	T1/2 (hepatocytes) C [9]	CLint (liver) C [9]	CLint (hep) C [9]	T1/2 of LMS, M [2]	T1/2 (hepatocytes) D [10]	CLint (liver) D [10]	CLint (hep) D [10]	CLint (mic) D [6]	further results
CN(C(=O)c1ccc2nc(N)c3cncn3c2c1)[C@@H]1COc2cc(C(F)(F)F)ccc21 [Compound 12]	26 nM	5.38 µM																			IC50 [1, 11]: 43 nM; half-life at 1 μM ([2]; mouse, liver microsomes): 68.2 min; IC50 [3, 11]: 5.16 µM
CN(C(=O)c1ccc2nc(N)c3cncn3c2c1)C1COc2cc(C(F)(F)F)ccc21 (stereo not shown) [Compound 17]	12 nM	12.8 µM	>145 min	32 nM	>145 min	64.2 min	4.08 µM														
CN(C(=O)c1cc2c(cn1)nc(N)c1cncn12)C1COc2cc(C(F)(F)F)ccc21 (stereo not shown) [Compound 19]	25 nM	13.5 µM	>145 min	39 nM	>145 min	>145 min	3.06 µM	<9.6 µL/min/mg	<8.6 mL/min/kg	146.6 min	44.3 mL/min/kg	9.5 μL/min/10^6	213.1 min	23.4 mL/min/kg	6.5 μL/min/10^6	120 min	>216.8 min	<44 mL/min/kg	<6.4 μL/min/10^6	<9.6 µL/min/mg	CLint (liver) D [6]: <13.8 mL/min/kg; CLint (mic) C [7]: <9.6 µL/min/mg; CLint (liver) C [7]: <13.0 mL/min/kg
CN(C(=O)c1cc2c(cn1)nc(N)c1cncn12)C1COc2cc(C(F)(F)F)ccc21 (stereo not shown) [Compound 21]	25 nM	13.6 µM	>145 min		>145 min	>145 min		<9.6 µL/min/mg	<8.6 mL/min/kg	179.0 min	36.2 mL/min/kg	7.7 μL/min/10^6	>216.8 min	<23 mL/min/kg	<6.4 μL/min/10^6	109 min	>216.8 min	<44 mL/min/kg	<6.4 μL/min/10^6	<9.6 µL/min/mg	CLint (liver) D [6]: <13.8 mL/min/kg; CLint (mic) C [7]: <9.6 µL/min/mg; CLint (liver) C [7]: <13.0 mL/min/kg
CN(C(=O)c1cc2c(cn1)nc(N)c1cncn12)C1CC(F)(F)c2cc(C(F)(F)F)ccc21 (stereo not shown) [Compound 24]	14 nM	24.8 µM		52 nM			3.93 µM			107.8 min	60.2 mL/min/kg	12.9 μL/min/10^6	131.6 min	37.9 mL/min/kg	10.5 μL/min/10^6	>145 min	214.6 min	44.4 mL/min/kg	6.5 μL/min/10^6		
